Patent publication US20110008302A1, “Compositions and methods for immortalizing cells and screening for anti-cancer agents” (priority 2007, published 2011)

How the values were obtained:
Ndy1 = assay: siRNA knock down in MEFs (Western blot, real time PCR of p16Ink4a, p19Arf, Ezh2, miR-101); format: cell-based, mouse
Experimental: At a time point four days after transfection cells were analyzed by Western blotting and total mRNA was collected and analyzed by real-time PCR with primers specific for p16^Ink4a and p19^Arf and primers specific for the long and short forms of Ndy1. (n=3)*p<0.05
(§1) MEFs overexpressing Ndy1 or Ndy2 and MEFs in which Ndy1 was knocked down with siRNA (1433-[…]-1454, SEQ ID NO: 1), were monitored for senescence by light microscopy and β-galactosidase staining and by cell counting at each passage. Transfection of siRNA was carried out using Lipofectamine 2000 (Invitrogen; Carlsbad, Calif.). Knockdown of Ndy1 was confirmed by Western blotting and real time RTPCR.
For siRNA. MEFs transfected with Ndy1 (1433-[…]-1454; SEQ ID NO: 51) or control siRNA (Dharmacon) were plated at 10^5 cells per 6 cm dish and 3-4 days later were harvested and analyzed (Pfau, R., et al. (2008) Proc Natl Acad Sci USA 105, 1907-12, incorporated herein by reference in its entirety). MEFs were transfected with the help of Lipofectamine 2000 (Invitrogen). To specifically knock down the short form of Ndy1 the following siRNA were used: 5′-[…]-′3 (SEQ ID NO: 52) which specifically targets the exon1 of the v2 isoform of Ndy1 (NM_013910). siRNAs for Ezh2 (a mix of two siRNAs form Applied Biosystems, #AM16708 siID #157427 and #157426) and Bmi-1 (Santa Cruz Biotechnologies, # sc-29815) were used in a final concentration of 80 nM.

[1] = system: TCCSUP, WIDR, SKOV3, T24, NCI522; assay: Ndy1 siRNA in cancer cell lines expressing high levels of FGF-2; format: cell-based, human; details: five of eight high FGF-2 cell lines, 48 hours after transfection
Experimental: RNAs were transfected with Lipofectamine 2000 (Invitrogen, catalog number 11668-027) in MEFs and DharmaFect 3 (Dharmacon, catalog number T-2003-03) in cancer cell lines, according to the manufacturers' instructions (80 nM final concentration).
These eight high FGF-2 expressing cell lines were then transfected with siRNA for Ndy1 or a control siRNA. Nuclear extracts of these cells, collected 48 hours after the transfection, were probed with antibodies specific for each of Ndy1, Ezh2 and CREB. RNA isolated from these cells was analyzed by real time RT-PCR for abundance of microRNA miR-101. […] The five cell lines were obtained from patients having each of transitional cell carcinoma, lung cancer, colon cancer, ovarian cancer, and bladder cancer.

MEFs [2] = assay: FGF-2-induced proliferation and migration of MEFs (MTT, transwell filter, wound healing); format: cell-based, mouse
Source text: FGF-2 stimulation induces both proliferation and migration in various cell types. To determine the role of Ndy1 in FGF-2-driven proliferation and migration, FGF-2 was used to stimulate serum-starved MEFs which were transfected with control RNA, siRNA for Ndy1, miR-101 or with siRNA for Ndy1+miR-101.
To determine cell number, the 3-[4,5-dimethylthiazol-2-yl]-2,5-[…] bromide (MTT, Invitrogen, catalog number M6494) assay was used as described in Polytarchou, C et al., 2005 J. Biol. Chem. 280: 40428-35. Cells were seeded at 2×10^4 cells/well in 24-well tissue culture plates. Twenty-four hours later, cells were serum-starved in medium without FBS for 16 h. Culture medium was replaced with fresh medium containing FGF-2 or control carrier, and the number of cells was determined. Results were confirmed by direct counting of cells under the microscope, using a standard hemocytometer.
Migration assays were performed using 24-well microchemotaxis chambers (Costar) with uncoated polycarbonate membranes (pore size 8 μm). Briefly, cells were harvested and resuspended at 5×10^4 cells/0.15 ml in DMEM containing 0.25% BSA. The bottom chamber of each transwell unit contained 0.6 ml of DMEM supplemented with 0.25% BSA and FGF-2 (20 ng/ml) or carrier as a control. The plates were incubated for 6 h at 37° C. and the filters were fixed with 4% paraformaldehyde in PBS and stained with 0.1% crystal violet solution. The cells that migrated through the filter were counted using a grid and an Optech microscope at 20× magnification.
To assay wound healing, cells were plated on 6-well plates, incubated in DMEM containing 10% FBS until confluence and were serum starved for 16 hours. Wounds were introduced to the confluent cell monolayer with a plastic pipette tip. Wells were washed three times to remove floating cells, and were cultured in DMEM without FBS, in the presence or absence of FGF-2 (20 ng/ml). Twelve and twenty four hours later, the wound area was photographed using a Nikon Phase Contrast-2 ELWD 0.3 Diaphot TMD inverted microscope with a 10× objective and a Spot charge-coupled-device camera (Diagnostic Instruments).

MEFs [3] = assay: Stimulation of serum-starved MEFs with growth factors or serum (Ezh2, Ndy1, miR-101 levels); format: cell-based, mouse
Experimental: MEFs were transfected with control siRNA and stimulated with serum (10%) for 1, 4, 12 and 18 hours. (upper) Nuclear extracts were probed with antibody specific for Ezh2 and for CREB, levels of which served as loading control. (lower) Ndy1 and Ezh2 mRNA levels were measured with real time RT-PCR; GAPDH mRNA levels were used as internal control. Data are expressed as mean±SD.
Serum starved MEFs were stimulated with each of FGF-2 (20 ng/ml), IGF-1 (20 ng/ml), PDGF (20 ng/ml), serum (10%), VEGF (20 ng/ml), EGF (20 ng/ml) or TNFα (50 ng/ml). Nuclear extracts were probed with antibody specific for Ezh2 and for CREB, levels of which served as loading control.
Data are expressed as mean±SD.
MEFs transfected with control siRNA were stimulated with FGF-2 for 1, 4, 12 or 18 hours. (upper) Nuclear extracts were probed with antibody specific for Ezh2. CREB levels served as loading control. (middle) Ndy1 and Ezh2 mRNA were measured with real time RT-PCR; GAPDH mRNA levels were used as internal control. Data are expressed as mean±SD. (lower) miR-101 levels were measured with real time RT-PCR; U6 small nuclear RNA levels were used as internal control. Data are expressed as mean±SD.
For stimulation with FGF-2 (Cell signalling, catalog number 8910), IGF-1 (R&D Systems, catalog number 791-MG), PDGF (Cell signalling, catalog number 9909), VEGF (R&D systems, catalog number 493-MV), EGF (R&D systems, catalog number 236-EG), TNFα (Cell Signalling, catalog number 2169), cells were serum starved for 16 hours and growth factors were added at a final concentration of 20 ng/ml each, for 24 hours.
To identify a pathway regulating Ezh2 expression via the Ndy1/miR-101 axis, serum-starved MEFs were stimulated with FGF-2, IGF-1, PDGF, EGF, VEGF, TNFα or serum and were examined for expression of Ezh2, Ndy1 and miR-101 before and 24 hours after stimulation. […] This was confirmed with analyses in which FGF-2 was used to stimulate serum-starved MEFs transfected with a control siRNA or siRNA for Ndy1 (FIG. 36).

MEFs [4] = assay: Senescence of MEFs after Ndy1 siRNA (cell counting, β-galactosidase staining); format: cell-based, mouse
Experimental: as §1
MEFs transfected with Ndy1 (1433-[…]-1454) or control siRNA (Dharmacon; Chicago, Ill.) were plated in triplicate at 10^5 cells per well in 6 well dishes, and three days later they were counted, re-transfected and replated at 10^5 cells per well. At day 6, cells were photographed, counted and stained for the β-galactosidase (Pierce #9860; Rockford, Ill.). β-galactosidase staining of the cells infected with the retroviral constructs and the siRNA-treated cells was performed using X-gal and a β-galactosidase staining kit (Pierce #9860).
To determine whether endogenous Ndy1 is a physiological regulator of senescence, passage 3 wild type MEFs and passage-8 MEFs overexpressing Ndy1 were transfected with Ndy1 or control siRNA. […] The transfected cells were passaged twice, and cell proliferation was monitored by counting the cells at each passage. Cell morphology and β-galactosidase staining were recorded after the second passage (FIG. 10 panel B, FIG. 10 panel C and FIG. 10 panel D). […]

[5] = system: Human Umbilical cord Vein Endothelial Cells; assay: In vitro tube formation assay; format: cell-based; details: HUVECs, FGF-2 20 ng/ml, 6 h
Experimental: HUVECs were transduced with a myc.Ezh2 expression construct, or with the empty vector (EV) and were subsequently transduced with either shRNA for Ndy1 or with a lentiviral-based control shRNA. (upper-first row) Tube formation on Cultrex-RGF-BME without FGF-2. (upper-second row) Tube formation on Cultrex-RGF-BME in the presence of 20 ng/ml FGF-2. (upper-third row) Tube formation on reduced-growth factor-Matrigel in the presence of 5 μM of the angiogenesis inhibitor sulphoraphane. (lower) Quantitation of tube formation was performed with the Angioquant software. Relative tube formation was calculated as the ratio of total capillary tube length in cells with or without FGF-2 normalized to total capillary tube length of EV cells without FGF-2 and set to 1 for total capillary tube length of EV cells without FGF-2. Data are expressed as mean±SD.
HUVECs were then transduced with a pBabe-based retrovirus construct of myc-Ezh2. Cells transduced with the empty pBabe vector (EV) were used as a negative control. […]
The in vitro tube formation assay was performed using the In Vitro Angiogenesis Assay Kit (Trevigen, catalog number 3470-096-K). […] After 6 h of incubation at 37° C., the medium was removed, the cells were fixed and stained with Calcein AM, and the total length of capillary tubes was measured in the total area of the wells using image analysis software (Angioquant). […]

[6] = MEFs cultured under standard conditions
[7] = serum-starved MEFs transfected with control RNA
[8] = MEFs transfected with control siRNA, FGF-2 for 1, 4, 12 or 18 hours
[9] = serum-starved MEFs, 24 hours after stimulation

For “1433-GUGGACUCACCUUACCGAAUU-1454 [Ndy1 siRNA]”, which “expression of Ezh2” value (Ndy1; [6]) is on record?
The value was “down-regulates, slightly”.

And the “expression of miR-101” value (Ndy1; [6])?
The value was “does not affect”.

And the “p16Ink4a (Western blot)” value (Ndy1; passage 2 MEFs, transient knock down, 4 days)?
The value was “relatively slight upregulation”.

And the “increase of expression of p16Ink4a” value (Ndy1; passage 3 MEFs, four days after transfection)?
The value was “about 2.3 times”.

What about the “expression of Ezh2” value (Ndy1; passage 3 MEFs, four days after transfection (FIG. 17 panel B)) of the same substance?
The value was “decreases”.

What about the “endogenous and exogenous Ndy1 (Western blotting)” value (Ndy1; passage 3 wild type MEFs and passage-8 MEFs overexpressing Ndy1) of the same substance?
The value was “downregulation”.

And the Ezh2 [1]?
The Ezh2 was “downregulated”.

What about the “expression of miR-101” value [1] of the same substance?
The value was “upregulating”.

What about the FGF-2 driven proliferation (MEFs [2]; MEFs overexpressing myc.Ezh2) of the same substance?
Its FGF-2 driven proliferation is “no effect”.

And the “directional and random FGF-2 driven cell motility” value (MEFs [2]; MEFs overexpressing myc.Ezh2)?
The value was “remained unaffected”.

What about the “FGF-2-induced Ezh2 upregulation” value (MEFs [2]; MEFs, 48 hour time point under FGF-2) of the same substance?
Its value is “sufficient to block”.

What about the “FGF-2 effect on proliferation and migration” value (MEFs [2]; serum-starved MEFs stimulated with FGF-2) of the same substance?
The value was “greatly limited”.

And the “serum-stimulated Ezh2 upregulation” value (MEFs [3]; MEFs transfected with siRNA for Ndy1, serum stimulation)?
Its value is “not affected”.

And the senescence (MEFs [4])?
Its senescence is “promote senescence”.

Which results are given for “FGF-2: Fibroblast growth factor-2 (FGF-2) or basic fibroblast growth factor”?
directional and random migration (MEFs [2]; [7]): increase; proliferation rate (MEFs [2]; [7]): increase; total length of the capillary tubes formed [5]: increase; Ezh2 (MEFs [3]; [8]): upregulates; Ndy1 (MEFs [3]; [8]): upregulates; miR-101 (MEFs [3]; [8]): down-regulates; expression of Ndy1 (MEFs [3]; [9]): promoted; level at which Ezh2 expression is induced (MEFs [3]; [9]): primarily at the protein level; miR-101 (MEFs [3]; [9]): downregulating; Ezh2 expression (MEFs [3]; serum-starved MEFs, 24 hours after stimulation, 20 ng/ml (serum 10%)): significantly upregulated
